For assay [1], the system named is Bacillus subtilis. The experiment in a line: Antimicrobial activity against Bacillus subtilis at 100 ug/disk. In kind it is functional, organism-based.
The subject of assay [2] is Staphylococcus aureus. The experiment in a line: Antimicrobial activity against Staphylococcus aureus at 100 ug/disk. In kind it is functional, organism-based.

Structures are written as SMILES. Activity calls are given as the source filed them. No cut-off for these calls is given here.

For `COc1c(Br)cc(C/C(=N\O)C(=O)NCCCOc2ccc(CCN)cc2Br)cc1Br`, the result in assay [1] and in assay [2] was Active.
In the case of `COC1=C(Br)[C@H](O)[C@@]2(C=C1Br)CC(C(=O)NCCCOc1ccc(CCN)cc1Br)=NO2`, the outcome in assay [1] and in assay [2] was Active.

The values are drawn from ChEMBL document CHEMBL1150194, “Two new brominated tyrosine derivatives from the sponge Druinella (= Psammaplysilla) purpurea” (J Nat Prod, 1991).
